Reference: US20250186405A1, “Compound For Use In Treating Narcolepsy” (Alkermes, Inc., priority 2023, published 2025)

System: subjects with narcolepsy type-1 (NT1)
Assay: Part 4 POC NT1: treatment-emergent adverse events, single doses, crossover
Format: in vivo, human
Method: Subjects were randomized to 1 of 4 sequences.
Each subject received three doses of Compound A, including 1, 3, and 8 mg, and a single dose of placebo. […] All subjects underwent the washout period and completed all 4-way randomized crossover periods.
With one exception, each subject received three doses of Compound A, including 1, 3, and 8 mg, and a single dose of placebo. One patient withdrew from the study after the first dose due to venous access complications. […] With the exception of one patient as noted above, all subjects underwent the washout period and completed all 4-way randomized crossover periods.

CS(=O)(=O)N[C@H]1CCCN2C(=O)COc3ccccc3C3CCC(CC3)OCC12 (stereo partly drawn) [Compound A, N-[(4S,4aR,7α,10α)-1,2,3,4,4a,5,7,8,9,10,16,17-dodecahydro-17-oxo-7,10-ethanopyrido[1,2-d][1,7,4]benzodioxaazacyclotridecin-4-yl]methanesulfonamide]
AE Leading to Study Drug Discontinuation (1 mg (N = 4)): 0 n (%)
Any SAEs (1 mg (N = 4)): 0 n (%)
Any TEAE (1 mg (N = 4)): 1 (25.0) n (%)
Death (1 mg (N = 4)): 0 n (%)
TEAE Anaemia (1 mg (N = 4)): 0 n (%)
TEAE Application site dermatitis (1 mg (N = 4)): 1 (25.0) n (%)
TEAE Blood pressure increased (1 mg (N = 4)): 0 n (%)
TEAE Bruxism (1 mg (N = 4)): 0 n (%)
TEAE Dermatitis contact (1 mg (N = 4)): 0 n (%)
TEAE Dizziness (1 mg (N = 4)): 0 n (%)
TEAE Hyperhidrosis (1 mg (N = 4)): 0 n (%)
TEAE Hyperlipidaemia (1 mg (N = 4)): 0 n (%)
TEAE Insomnia (1 mg (N = 4)): 0 n (%)
TEAE Pollakiuria (1 mg (N = 4)): 0 n (%)
TEAE Procedural anxiety (1 mg (N = 4)): 0 n (%)
TEAE Salivary hypersecretion (1 mg (N = 4)): 0 n (%)
TEAE Vascular access site injury (1 mg (N = 4)): 0 n (%)
TEAE Vessel puncture site bruise (1 mg (N = 4)): 0 n (%)
TEAE by Highest Relationship: Not Related (1 mg (N = 4)): 1 (25.0) n (%)
TEAE by Highest Relationship: Related (1 mg (N = 4)): 0 n (%)
TEAE by Highest Severity: Mild (1 mg (N = 4)): 1 (25.0) n (%)
TEAE by Highest Severity: Moderate (1 mg (N = 4)): 0 n (%)
TEAE by Highest Severity: Severe (1 mg (N = 4)): 0 n (%)
AE Leading to Study Drug Discontinuation (1 mg (N = 9)): 0 n (%)
Any SAEs (1 mg (N = 9)): 0 n (%)
Any TEAE (1 mg (N = 9)): 6 (66.7) n (%)
Death (1 mg (N = 9)): 0 n (%)
TEAE Anaemia (1 mg (N = 9)): 0 n (%)
TEAE Application site dermatitis (1 mg (N = 9)): 1 (11.1) n (%)
TEAE Back pain (1 mg (N = 9)): 0 n (%)
TEAE Blood pressure increased (1 mg (N = 9)): 0 n (%)
TEAE Bruxism (1 mg (N = 9)): 0 n (%)
TEAE Decreased appetite (1 mg (N = 9)): 1 (11.1) n (%)
TEAE Dehydration (1 mg (N = 9)): 1 (11.1) n (%)
TEAE Dermatitis contact (1 mg (N = 9)): 0 n (%)
TEAE Dizziness (1 mg (N = 9)): 1 (11.1) n (%)
TEAE Haemoglobin decreased (1 mg (N = 9)): 0 n (%)
TEAE Headache (1 mg (N = 9)): 0 n (%)
TEAE Hyperhidrosis (1 mg (N = 9)): 0 n (%)
TEAE Hyperlipdaemia (1 mg (N = 9)): 0 n (%)
TEAE Insomnia (1 mg (N = 9)): 0 n (%)
TEAE Middle Insomnia (1 mg (N = 9)): 0 n (%)
TEAE Nausea (1 mg (N = 9)): 2 (22.2) n (%)
TEAE Pollakiuria (1 mg (N = 9)): 0 n (%)
TEAE Salivary hypersecretion (1 mg (N = 9)): 1 (11.1) n (%)
TEAE Sinus tachycardia (1 mg (N = 9)): 1 (11.1) n (%)
TEAE Vascular access site injury (1 mg (N = 9)): 0 n (%)
TEAE Vessel puncture site bruise (1 mg (N = 9)): 0 n (%)
TEAE Vessel puncture site pain (1 mg (N = 9)): 0 n (%)
TEAE by Highest Relationship: Not Related (1 mg (N = 9)): 1 (11.1) n (%)
TEAE by Highest Relationship: Related (1 mg (N = 9)): 5 (55.6) n (%)
TEAE by Highest Severity: Mild (1 mg (N = 9)): 6 (66.7) n (%)
TEAE by Highest Severity: Moderate (1 mg (N = 9)): 0 n (%)
TEAE by Highest Severity: Severe (1 mg (N = 9)): 0 n (%)
AE Leading to Study Drug Discontinuation (3 mg (N = 4)): 0 n (%)
Any SAEs (3 mg (N = 4)): 0 n (%)
Any TEAE (3 mg (N = 4)): 2 (50.0) n (%)
Death (3 mg (N = 4)): 0 n (%)
TEAE Anaemia (3 mg (N = 4)): 0 n (%)
TEAE Application site dermatitis (3 mg (N = 4)): 0 n (%)
TEAE Blood pressure increased (3 mg (N = 4)): 0 n (%)
TEAE Bruxism (3 mg (N = 4)): 0 n (%)
TEAE Dermatitis contact (3 mg (N = 4)): 1 (25.0) n (%)
TEAE Dizziness (3 mg (N = 4)): 0 n (%)
TEAE Hyperhidrosis (3 mg (N = 4)): 0 n (%)
TEAE Hyperlipidaemia (3 mg (N = 4)): 0 n (%)
TEAE Insomnia (3 mg (N = 4)): 0 n (%)
TEAE Pollakiuria (3 mg (N = 4)): 0 n (%)
TEAE Procedural anxiety (3 mg (N = 4)): 1 (25.0) n (%)
TEAE Salivary hypersecretion (3 mg (N = 4)): 0 n (%)
TEAE Vascular access site injury (3 mg (N = 4)): 1 (25.0) n (%)
TEAE Vessel puncture site bruise (3 mg (N = 4)): 1 (25.0) n (%)
TEAE by Highest Relationship: Not Related (3 mg (N = 4)): 2 (50.0) n (%)
TEAE by Highest Relationship: Related (3 mg (N = 4)): 0 n (%)
TEAE by Highest Severity: Mild (3 mg (N = 4)): 2 (50.0) n (%)
TEAE by Highest Severity: Moderate (3 mg (N = 4)): 0 n (%)
TEAE by Highest Severity: Severe (3 mg (N = 4)): 0 n (%)
AE Leading to Study Drug Discontinuation (3 mg (N = 9)): 0 n (%)
Any SAEs (3 mg (N = 9)): 0 n (%)
Any TEAE (3 mg (N = 9)): 5 (55.6) n (%)
Death (3 mg (N = 9)): 0 n (%)
TEAE Anaemia (3 mg (N = 9)): 0 n (%)
TEAE Application site dermatitis (3 mg (N = 9)): 0 n (%)
TEAE Back pain (3 mg (N = 9)): 0 n (%)
TEAE Blood pressure increased (3 mg (N = 9)): 0 n (%)
TEAE Bruxism (3 mg (N = 9)): 0 n (%)
TEAE Decreased appetite (3 mg (N = 9)): 0 n (%)
TEAE Dehydration (3 mg (N = 9)): 0 n (%)
TEAE Dermatitis contact (3 mg (N = 9)): 2 (22.2) n (%)
TEAE Dizziness (3 mg (N = 9)): 0 n (%)
TEAE Haemoglobin decreased (3 mg (N = 9)): 0 n (%)
TEAE Headache (3 mg (N = 9)): 0 n (%)
TEAE Hyperhidrosis (3 mg (N = 9)): 0 n (%)
TEAE Hyperlipdaemia (3 mg (N = 9)): 0 n (%)
TEAE Insomnia (3 mg (N = 9)): 0 n (%)
TEAE Middle Insomnia (3 mg (N = 9)): 1 (11.1) n (%)
TEAE Nausea (3 mg (N = 9)): 0 n (%)
TEAE Pollakiuria (3 mg (N = 9)): 2 (22.2) n (%)
TEAE Salivary hypersecretion (3 mg (N = 9)): 1 (11.1) n (%)
TEAE Sinus tachycardia (3 mg (N = 9)): 0 n (%)
TEAE Vascular access site injury (3 mg (N = 9)): 1 (11.1) n (%)
TEAE Vessel puncture site bruise (3 mg (N = 9)): 1 (11.1) n (%)
TEAE Vessel puncture site pain (3 mg (N = 9)): 0 n (%)
TEAE by Highest Relationship: Not Related (3 mg (N = 9)): 2 (22.2) n (%)
